In article PMC8890542, “Discovery of novel paeonol-based derivatives against skin inflammation in vitro and in vivo” (Journal of Enzyme Inhibition and Medicinal Chemistry, 2022):

Tests used:
[1] = test system: LPS-induced nitric oxide production in RAW264.7 cells; test: LPS-induced NO production, Griess Reagent assay; format: cell-based, mouse; settings: for IC50 / inhibition at 10 µM: Mus musculus; for IC50: LPS (0.5 μg/mL) 24 h; for inhibition at 10 µM: compounds 10 μM, 1 h, then LPS (0.5 μg/mL) 24 h, read-out: Inhibition rate±SD (%) against NO production; for Inhibitory activity on LPS-induced NO secretion, in words: 10 µM
Method: RAW264.7 cells (7 × 10^4 cells/well) were seeded into 48-well plate and used for experiments after 24 h. […] After 24 h collect cell supernatant, NO production was measured using Griess Reagent assay (Beyotime). Griess reagent were mixed at a ratio of 1:1, and reacted at room temperature for 15 min. Measurement of absorbance at […] with enzyme reader. At least three independent experiments were performed for the determination of IC50 values, which were shown as mean ± SD. All experimental data were analysed by using GraphPad Prism software, version 8.0 (GraphPad Inc.).

[2] = Cell viability assay (MTT), LO2; format: cell-based; settings: human, LO2 cells, read-out: Cytotoxicity IC50 with LO2
[3] = Cell viability assay (MTT), RAW264.7; format: cell-based, mouse; settings: mouse, RAW264.7 cells, read-out: Cytotoxicity IC50 with RAW264.7
Method: RAW264.7 cells (1 × 10^4 cells/well) were seeded into 96-well plate and used for experiments after 24 h. Compounds (4 µM, 20 µM and 100 µM) treated cell for 24 h. Forty microliters of MTT solution (5 mg/mL, Sigma-Aldrich) was then added and incubated for an additional 4 h. After 4 h, cell culture supernatants were removed and DMSO (150 µL) was added into per well for dissolving the resulting crystals. Shaking about 1 0 ∼ 15 min and the absorbance at 492 nm was measured by a microplate reader (MQX200, Bio-Tek, Winooski, VT). At least three independent experiments were performed for the determination of IC50 values, which were shown as mean ± SD. All experimental data were analysed by using GraphPad Prism software, version 8.0 (GraphPad Inc.).

Cc1ccc(-c2cc(C(F)(F)F)nn2-c2ccc(S(N)(=O)=O)cc2)cc1 [Cel, Celecoxib, reference compound]
IC50 [1]: > 10 µM
inhibition at 10 µM [1]: 30.1 ± 2.33%
IC50 at 24 h [2]: > 100 µM
IC50 at 24 h [3]: > 100 µM

COc1cc(O)c(C(C)=O)cc1NC(=O)Nc1ccc(C(F)(F)F)cc1 [Compound B11, 1–(5-acetyl-4-hydroxy-2-methoxyphenyl)-3–(4-(trifluoromethyl)phenyl) urea]
IC50 [1]: 5.08 µM
inhibition at 10 µM [1]: 60.9 ± 4.12%
IC50 at 24 h [2]: > 100 µM
IC50 at 24 h [3]: > 100 µM

COc1cc(O)c(C(C)=O)cc1NC(=O)Nc1ccc(OC(F)(F)F)cc1 [Compound B13, 1–(5-acetyl-4-hydroxy-2-methoxyphenyl)-3–(4-(trifluoromethoxy)phenyl) urea]
IC50 [1]: > 10 µM
inhibition at 10 µM [1]: 25.1 ± 4.18%
IC50 at 24 h [2]: > 100 µM
IC50 at 24 h [3]: > 100 µM
melting point: 209 to 210 °C

COc1cc(O)c(C(C)=O)cc1NC(=O)N1CCSC1 [Compound A14, N-(5-acetyl-4-hydroxy-2-methoxyphenyl) thiazolidine-3-carboxamide]
IC50 [1]: > 10 µM
inhibition at 10 µM [1]: 24.1 ± 5.16%
IC50 at 24 h [2]: > 100 µM
IC50 at 24 h [3]: > 100 µM
melting point: 172 to 174 °C

COc1cc(O)c(C(C)=O)cc1NC(=O)NCCc1ccc(F)cc1 [Compound D2, 1–(5-acetyl-4-hydroxy-2-methoxyphenyl)-3–(4-fluorophenethyl) urea]
IC50 [1]: > 10 µM
inhibition at 10 µM [1]: 30.2 ± 3.98%
IC50 at 24 h [2]: > 100 µM
IC50 at 24 h [3]: > 100 µM
melting point: 224 to 225 °C

COc1cc(O)c(C(C)=O)cc1NC(=O)N1CCN(C)CC1 [Compound A10, N-(5-acetyl-4-hydroxy-2-methoxyphenyl)-4-methylpiperazine-1-carboxamide]
IC50 [1]: > 10 µM
inhibition at 10 µM [1]: 26 ± 5.12%
IC50 at 24 h [2]: > 100 µM
IC50 at 24 h [3]: > 100 µM
melting point: 141 to 142 °C

CONC(=O)Nc1cc(C(C)=O)c(O)cc1OC [Compound A4, 1–(5-acetyl-4-hydroxy-2-methoxyphenyl)-3-methoxyurea]
IC50 [1]: > 10 µM
inhibition at 10 µM [1]: 15.2 ± 4.18%
IC50 at 24 h [2]: > 100 µM
IC50 at 24 h [3]: > 100 µM
melting point: 176 to 177 °C

COc1ccc(CNC(=O)Nc2cc(C(C)=O)c(O)cc2OC)cc1 [Compound C5, 1–(5-acetyl-4-hydroxy-2-methoxyphenyl)-3–(4-methoxybenzyl) urea]
IC50 [1]: > 10 µM
inhibition at 10 µM [1]: 6.25 ± 5.16%
IC50 at 24 h [2]: > 100 µM
IC50 at 24 h [3]: > 100 µM
melting point: 233 to 234 °C

COc1cc(O)c(C(C)=O)cc1NC(=O)Nc1ccc(C)cc1 [Compound B4, 1–(5-acetyl-4-hydroxy-2-methoxyphenyl)-3-(p-tolyl) urea]
Inhibitory activity on LPS-induced NO secretion, in words [1]: moderate inhibitory activity
IC50 [1]: 8.76 µM
inhibition at 10 µM [1]: 53.9 ± 4.12%
IC50 at 24 h [2]: > 100 µM
IC50 at 24 h [3]: > 100 µM
melting point: 218 to 219 °C

CCN(CC)C(=O)Nc1cc(C(C)=O)c(O)cc1OC [Compound A2, 3–(5-acetyl-4-hydroxy-2-methoxyphenyl)-1,1-diethylurea]
IC50 [1]: > 10 µM
inhibition at 10 µM [1]: 30.2 ± 4.89%
IC50 at 24 h [2]: > 100 µM
IC50 at 24 h [3]: > 100 µM
melting point: 132 to 134 °C

COc1cc(O)c(C(C)=O)cc1NC(=O)NCc1ccccc1Cl [Compound C1, 1–(5-acetyl-4-hydroxy-2-methoxyphenyl)-3–(2-chlorobenzyl) urea]
IC50 [1]: > 10 µM
inhibition at 10 µM [1]: 33.7 ± 6.15%
IC50 at 24 h [2]: > 100 µM
IC50 at 24 h [3]: > 100 µM

CNC(=O)Nc1cc(C(C)=O)c(O)cc1OC [Compound A1, 1–(5-acetyl-4-hydroxy-2-methoxyphenyl)-3-methylurea]
IC50 [1]: > 10 µM
inhibition at 10 µM [1]: 20.1 ± 6.12%
IC50 at 24 h [2]: > 100 µM
IC50 at 24 h [3]: > 100 µM
melting point: 211 to 213 °C

COc1cc(O)c(C(C)=O)cc1NC(=O)Nc1cccc(C)c1 [Compound B2, 1–(5-acetyl-4-hydroxy-2-methoxyphenyl)-3-(m-tolyl) urea]
IC50 [1]: > 10 µM
inhibition at 10 µM [1]: 48.7 ± 5.49%
IC50 at 24 h [2]: > 100 µM
IC50 at 24 h [3]: > 100 µM
melting point: 209 to 210 °C

COc1cc(O)c(C(C)=O)cc1NC(=O)N1CCOCC1 [Compound A11, N-(5-acetyl-4-hydroxy-2-methoxyphenyl) morpholine-4-carboxamide]
IC50 [1]: > 10 µM
inhibition at 10 µM [1]: 29.8 ± 3.74%
IC50 at 24 h [2]: > 100 µM
IC50 at 24 h [3]: > 100 µM
melting point: 220 to 221 °C

COc1ccccc1CNC(=O)Nc1cc(C(C)=O)c(O)cc1OC [Compound C6, 1–(5-acetyl-4-hydroxy-2-methoxyphenyl)-3–(2-methoxybenzyl) urea]
IC50 [1]: > 10 µM
inhibition at 10 µM [1]: 8.12 ± 6.12%
IC50 at 24 h [2]: > 100 µM
IC50 at 24 h [3]: > 100 µM

COc1ccc(CCNC(=O)Nc2cc(C(C)=O)c(O)cc2OC)cc1 [Compound D3, 1–(5-acetyl-4-hydroxy-2-methoxyphenyl)-3–(4-methoxyphenethyl) urea]
IC50 [1]: > 10 µM
inhibition at 10 µM [1]: 33.3 ± 3.18%
IC50 at 24 h [2]: > 100 µM
IC50 at 24 h [3]: > 100 µM
melting point: 180 to 181 °C

COc1cccc(NC(=O)Nc2cc(C(C)=O)c(O)cc2OC)c1 [Compound B8, 1–(5-acetyl-4-hydroxy-2-methoxyphenyl)-3–(3-methoxyphenyl) urea]
IC50 [1]: 4.7 µM
inhibition at 10 µM [1]: 74.7 ± 6.15%
IC50 at 24 h [2]: > 100 µM
IC50 at 24 h [3]: > 100 µM

COc1cc(O)c(C(C)=O)cc1NC(=O)NCC(F)(F)F [Compound A5, 1–(5-acetyl-4-hydroxy-2-methoxyphenyl)-3–(2,2,2-trifluoroethyl) urea]
IC50 [1]: > 10 µM
inhibition at 10 µM [1]: 23.1 ± 3.25%
IC50 at 24 h [2]: > 100 µM
IC50 at 24 h [3]: > 100 µM
melting point: 232 to 234 °C

COc1cc(O)c(C(C)=O)cc1NC(=O)Nc1ccccc1 [Compound B1, 1–(5-acetyl-4-hydroxy-2-methoxyphenyl)-3-phenylurea]
IC50 [1]: 9.45 µM
inhibition at 10 µM [1]: 51 ± 3.25%
IC50 at 24 h [2]: > 100 µM
IC50 at 24 h [3]: > 100 µM

COc1cc(O)c(C(C)=O)cc1NC(=O)NCc1ccco1 [Compound C7, 1–(5-acetyl-4-hydroxy-2-methoxyphenyl)-3-(furan-2-ylmethyl) urea]
IC50 [1]: > 10 µM
inhibition at 10 µM [1]: 26.2 ± 5.13%
IC50 at 24 h [2]: > 100 µM
IC50 at 24 h [3]: > 100 µM
melting point: 231 to 232 °C

COc1cc(O)c(C(C)=O)cc1NC(=O)Nc1ccccc1C [Compound B3, 1–(5-acetyl-4-hydroxy-2-methoxyphenyl)-3-(o-tolyl) urea]
Inhibitory activity on LPS-induced NO secretion, in words [1]: weak to moderate inhibitory activity
IC50 [1]: > 10 µM
inhibition at 10 µM [1]: 47.2 ± 6.12%
IC50 at 24 h [2]: > 100 µM
IC50 at 24 h [3]: > 100 µM
melting point: 238 to 239 °C

CCN1CCN(C(=O)Nc2cc(C(C)=O)c(O)cc2OC)CC1 [Compound A13, N-(5-acetyl-4-hydroxy-2-methoxyphenyl)-4-ethylpiperazine-1-carboxamide]
IC50 [1]: > 10 µM
inhibition at 10 µM [1]: 35.1 ± 2.87%
IC50 at 24 h [2]: > 100 µM
IC50 at 24 h [3]: > 100 µM
melting point: 125 to 126 °C

COc1cc(O)c(C(C)=O)cc1NC(=O)Nc1cccc(F)c1 [Compound B5, 1–(5-acetyl-4-hydroxy-2-methoxyphenyl)-3–(3-fluorophenyl) urea]
IC50 [1]: 6.22 µM
inhibition at 10 µM [1]: 63 ± 3.87%
IC50 at 24 h [2]: > 100 µM
IC50 at 24 h [3]: > 100 µM

COc1cc(O)c(C(C)=O)cc1NC(=O)NC1CC1 [Compound A9, 1–(5-acetyl-4-hydroxy-2-methoxyphenyl)-3-cyclopropylurea]
IC50 [1]: > 10 µM
inhibition at 10 µM [1]: 41 ± 3.15%
IC50 at 24 h [2]: > 100 µM
IC50 at 24 h [3]: > 100 µM
melting point: 191 to 192 °C

CCNC(=O)Nc1cc(C(C)=O)c(O)cc1OC [Compound A6, 1–(5-acetyl-4-hydroxy-2-methoxyphenyl)-3-ethylurea]
IC50 [1]: > 10 µM
inhibition at 10 µM [1]: 16.2 ± 6.01%
IC50 at 24 h [2]: > 100 µM
IC50 at 24 h [3]: > 100 µM
melting point: 211 to 212 °C

COc1cc(O)c(C(C)=O)cc1NC(=O)NC(C)(C)C [Compound A8, 1–(5-acetyl-4-hydroxy-2-methoxyphenyl)-3-(tert-butyl) urea]
IC50 [1]: > 10 µM
inhibition at 10 µM [1]: 12.3 ± 4.12%
IC50 at 24 h [2]: > 100 µM
IC50 at 24 h [3]: > 100 µM

COc1cc(O)c(C(C)=O)cc1NC(=O)NCCc1ccccc1F [Compound D4, 1–(5-acetyl-4-hydroxy-2-methoxyphenyl)-3–(2-fluorophenethyl)urea]
IC50 [1]: > 10 µM
inhibition at 10 µM [1]: 17.7 ± 2.15%
IC50 at 24 h [2]: > 100 µM
IC50 at 24 h [3]: > 100 µM

COc1cc(O)c(C(C)=O)cc1NC(=O)NCCc1ccccc1 [Compound D1, 1–(5-acetyl-4-hydroxy-2-methoxyphenyl)-3-phenethylurea]
IC50 [1]: > 10 µM
inhibition at 10 µM [1]: 15.3 ± 5.12%
IC50 at 24 h [2]: > 100 µM
IC50 at 24 h [3]: > 100 µM
